These results are taken from patent US10533000B2, “Metabotrophic glutamate receptor 5 modulators and methods of use thereof” (Sunovion Pharmaceuticals, Inc., priority 2011, dated 2020).

Each structure is given as a SMILES string.

This test addresses mGluR5 (Homo sapiens, UniProt P41594). The test is described as follows: mGluR5 positive allosteric modulator (PAM) functional assay. The format is cell-based.

Chain of mGluR5 (P41594 21-1212): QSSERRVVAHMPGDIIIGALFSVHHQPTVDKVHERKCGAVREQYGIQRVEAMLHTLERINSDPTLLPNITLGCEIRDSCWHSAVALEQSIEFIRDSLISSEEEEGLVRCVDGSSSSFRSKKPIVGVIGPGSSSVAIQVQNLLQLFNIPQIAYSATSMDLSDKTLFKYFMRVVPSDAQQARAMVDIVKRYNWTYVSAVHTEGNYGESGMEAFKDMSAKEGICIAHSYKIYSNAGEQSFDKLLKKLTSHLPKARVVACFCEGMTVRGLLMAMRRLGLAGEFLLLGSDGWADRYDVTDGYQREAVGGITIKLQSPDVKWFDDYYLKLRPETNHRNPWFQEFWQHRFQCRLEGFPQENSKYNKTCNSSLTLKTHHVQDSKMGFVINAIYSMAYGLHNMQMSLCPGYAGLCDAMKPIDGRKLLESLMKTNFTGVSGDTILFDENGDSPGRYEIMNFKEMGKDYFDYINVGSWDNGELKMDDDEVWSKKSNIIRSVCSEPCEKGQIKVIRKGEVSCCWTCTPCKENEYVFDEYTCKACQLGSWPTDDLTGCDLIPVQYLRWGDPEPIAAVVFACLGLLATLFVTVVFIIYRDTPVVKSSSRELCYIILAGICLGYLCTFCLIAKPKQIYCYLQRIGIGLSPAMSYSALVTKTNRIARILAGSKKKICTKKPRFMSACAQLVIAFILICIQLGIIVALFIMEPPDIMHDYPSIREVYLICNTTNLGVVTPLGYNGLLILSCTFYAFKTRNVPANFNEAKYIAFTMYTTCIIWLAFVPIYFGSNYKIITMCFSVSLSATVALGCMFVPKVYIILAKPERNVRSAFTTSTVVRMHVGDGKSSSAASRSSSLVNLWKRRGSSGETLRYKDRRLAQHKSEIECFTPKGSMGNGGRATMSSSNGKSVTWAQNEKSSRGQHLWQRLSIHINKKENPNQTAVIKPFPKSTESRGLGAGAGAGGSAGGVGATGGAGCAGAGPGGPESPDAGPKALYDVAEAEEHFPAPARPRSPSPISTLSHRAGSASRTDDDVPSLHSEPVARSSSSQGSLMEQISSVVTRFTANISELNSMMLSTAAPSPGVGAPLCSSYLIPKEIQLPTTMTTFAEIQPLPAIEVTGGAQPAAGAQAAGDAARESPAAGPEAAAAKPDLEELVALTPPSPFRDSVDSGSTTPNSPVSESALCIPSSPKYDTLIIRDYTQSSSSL

As a reminder, the EC50 is the concentration at which the effect is half-maximal. Lower therefore signals higher potency in that assay. On to `CNC(C)(C)c1nc(-c2ccc(C#Cc3cccc(F)c3)cn2)no1` [Compound 112, 2-(3-(5-((3-fluorophenyl)ethynyl)pyridin-2-yl)-1,2,4-oxadiazol-5-yl)-N-methylpropan-2-amine], for which the EC50 was at most 30 nM. Next, `CCC(OC)c1nc(-c2ccc(C#Cc3ccncc3)cc2)no1` (centres unmarked) [Compound 76, 5-(1-methoxypropyl)-3-(4-(pyridin-4-ylethynyl)phenyl)-1,2,4-oxadiazole]: 30 to 100 nM. In turn, `CC(c1nc(-c2ccc(C#Cc3cccc(F)c3)cc2)no1)N1CCC1` (centres unmarked) [Compound 52, 5-(1-(azetidin-1-yl)ethyl)-3-(4-((3-fluorophenyl)ethynyl)phenyl)-1,2,4-oxadiazole] displayed a concentration giving a half-maximal response (EC50) of 300 to 1000 nM. The same measure for `Clc1cccc(C#Cc2ccc(-c3noc(C4CCCN4)n3)nc2)c1` (centres unmarked) [Compound 166, 3-(5-((3-chlorophenyl)ethynyl)pyridin-2-yl)-5-(pyrrolidin-2-yl)-1,2,4-oxadiazole]: 300 to 1000 nM; for `CCC(CC)c1nc(-c2ccc(C#Cc3ccncc3)nc2)no1` [Compound 91, 5-(pentan-3-yl)-3-(6-(pyridin-4-ylethynyl)pyridin-3-yl)-1,2,4-oxadiazole]: at most 30 nM; for `C(#Cc1ccc(-c2noc(C3CCCN3)n2)nc1)c1ccccc1` (centres unmarked) [Compound 165, 3-(5-(phenylethynyl)pyridin-2-yl)-5-(pyrrolidin-2-yl)-1,2,4-oxadiazole]: 300 to 1000 nM. For `Fc1cccc(C#Cc2ccc(-c3noc(C4CCCN4)n3)nc2)c1` (centres unmarked) [Compound 119, 3-(5-((3-fluorophenyl)ethynyl)pyridin-2-yl)-5-(pyrrolidin-2-yl)-1,2,4-oxadiazole], the EC50 fell in the range of 300 to 1000 nM. The same measure for `N#CCN1CCCC1c1nc(-c2ccc(C#Cc3cccc(F)c3)cn2)no1` (centres unmarked) [Compound 125, 2-(2-(3-(5-((3-fluorophenyl)ethynyl)pyridin-2-yl)-1,2,4-oxadiazol-5-yl)pyrrolidin-1-yl)acetonitrile]: 30 to 100 nM. `CCC(C)c1nc(-c2ccc(C#Cc3cccnc3)cc2)no1` (centres unmarked) [Compound 81, 5-(sec-butyl)-3-(4-(pyridin-3-ylethynyl)phenyl)-1,2,4-oxadiazole] displayed an EC50 of 300 to 1000 nM. Next, `CC(C)Cc1nc(-c2ccc(C#Cc3cccc(F)c3)cc2)no1` [Compound 26, 3-(4-((3-fluorophenyl)ethynyl)phenyl)-5-isobutyl-1,2,4-oxadiazole]: 300 to 1000 nM; `CCC(CC)c1nnc(-c2ccc(C#Cc3cccc(F)c3)cc2)o1` [Compound 4, 2-(4-((3-fluorophenyl)ethynyl)phenyl)-5-(pentan-3-yl)-1,3,4-oxadiazole]: 30 to 100 nM; `CCN1CCCC1c1nc(-c2ccc(C#Cc3cccc(F)c3)cc2)no1` (centres unmarked) [Compound 48, 5-(1-ethylpyrrolidin-2-yl)-3-(4-((3-fluorophenyl)ethynyl)phenyl)-1,2,4-oxadiazole]: 100 to 300 nM. With `CCC(CC)c1nc(-c2ccc(C#Cc3cccc(F)c3)cc2)no1` [Compound 34, 3-(4-((3-fluorophenyl)ethynyl)phenyl)-5-(pentan-3-yl)-1,2,4-oxadiazole], the EC50 was in the range of 100 to 300 nM. With `CC(C)(C)OC(=O)N1CCC1c1nc(-c2ccc(C#Cc3cccc(F)c3)cn2)no1` (centres unmarked) [Compound 99, tert-butyl 2-(3-(5-((3-fluorophenyl)ethynyl)pyridin-2-yl)-1,2,4-oxadiazol-5-yl)azetidine-1-carboxylate], the EC50 was in the range of 300 to 1000 nM.

In the case of `CC(c1nc(-c2ccc(C#Cc3cccc(F)c3)cn2)no1)N(C)C` (centres unmarked) [Compound 104, 1-(3-(5-((3-fluorophenyl)ethynyl)pyridin-2-yl)-1,2,4-oxadiazol-5-yl)-N,N-dimethylethanamine], the EC50 is 100 to 300 nM. Next, `COC(C)c1nc(-c2ccc(C#Cc3ccncc3)cc2)no1` (centres unmarked) [Compound 74, 5-(1-methoxyethyl)-3-(4-(pyridin-4-ylethynyl)phenyl)-1,2,4-oxadiazole]: at most 30 nM; `CCC(C)c1nc(-c2ccc(C#Cc3ccccn3)cn2)no1` (centres unmarked) [Compound 134, 5-(sec-butyl)-3-(5-(pyridin-2-ylethynyl)pyridin-2-yl)-1,2,4-oxadiazole]: 30 to 100 nM. The same measure for `C[C@H](c1nc(-c2ccc(C#Cc3cccc(F)c3)cn2)no1)N(C)C` [Compound 105, (R)-1-(3-(5-((3-fluorophenyl)ethynyl)pyridin-2-yl)-1,2,4-oxadiazol-5-yl)-N,N-dimethylethanamine]: 30 to 100 nM. The same measure for `Fc1cccc(C#Cc2ccc(-c3noc(C4CCCN4)n3)nc2)c1` (stereo in doubt) [Compound 121, (S)-3-(5-((3-fluorophenyl)ethynyl)pyridin-2-yl)-5-(pyrrolidin-2-yl)-1,2,4-oxadiazole]: 300 to 1000 nM; for `Fc1cccc(C#Cc2ccc(-c3nnc(C4CCCC4)o3)cc2)c1` [Compound 1, 2-cyclopentyl-5-(4-((3-fluorophenyl)ethynyl)phenyl)-1,3,4-oxadiazole]: 300 to 1000 nM. In turn, `CC(c1nc(-c2ccc(C#Cc3cccc(F)c3)cn2)no1)N1CCCC1` (centres unmarked) [Compound 108, 3-(5-((3-fluorophenyl)ethynyl)pyridin-2-yl)-5-(1-(pyrrolidin-1-yl)ethyl)-1,2,4-oxadiazole] yielded a 50% effective concentration (EC50) of at most 30 nM. For `CCC(C)c1nc(-c2ccc(C#Cc3ccccn3)nc2)no1` (centres unmarked) [Compound 86, 5-(sec-butyl)-3-(6-(pyridin-2-ylethynyl)pyridin-3-yl)-1,2,4-oxadiazole], the half-maximal effective concentration (EC50) lay within 30 to 100 nM. The same measure for `CO[C@H]1CN[C@@H](c2nc(-c3ccc(C#Cc4cccc(F)c4)cn3)no2)C1` [Compound 133, 3-(5-((3-fluorophenyl)ethynyl)pyridin-2-yl)-5-((2R,4R)-4-methoxypyrrolidin-2-yl)-1,2,4-oxadiazole]: 30 to 100 nM; for `CN1CC(F)(F)C[C@@H]1c1nc(-c2ccc(C#Cc3ccccn3)cn2)no1` [Compound 154, (R)-5-(4,4-difluoro-1-methylpyrrolidin-2-yl)-3-(5-(pyridin-2-ylethynyl)pyridin-2-yl)-1,2,4-oxadiazole]: 300 to 1000 nM. `CC(C)(C)c1nc(-c2ccc(C#Cc3ccc(F)cc3)cc2)no1` [Compound 66, 5-(tert-butyl)-3-(4-((4-fluorophenyl)ethynyl)phenyl)-1,2,4-oxadiazole] came in with an EC50 of 100 to 300 nM. Next, `CCC(C)c1nc(-c2ccc(C#Cc3ccncc3)cc2)no1` (centres unmarked) [Compound 71, 5-(sec-butyl)-3-(4-(pyridin-4-ylethynyl)phenyl)-1,2,4-oxadiazole]: 100 to 300 nM.

`C=C1CN[C@H](c2nc(-c3ccc(C#Cc4cccc(F)c4)cn3)no2)C1` [Compound 127, (S)-3-(5-((3-fluorophenyl)ethynyl)pyridin-2-yl)-5-(4-methylenepyrrolidin-2-yl)-1,2,4-oxadiazole] yielded an EC50 of 100 to 300 nM. As to `C#CCN1CCCC1c1nc(-c2ccc(C#Cc3cccc(F)c3)cn2)no1` (centres unmarked) [Compound 124, 3-(5-((3-fluorophenyl)ethynyl)pyridin-2-yl)-5-(1-(prop-2-yn-1-yl)pyrrolidin-2-yl)-1,2,4-oxadiazole], the EC50 is at most 30 nM.

`CC(NC1CC1)c1nc(-c2ccc(C#Cc3cccc(F)c3)cn2)no1` (centres unmarked) [Compound 109, N-(1-(3-(5-((3-fluorophenyl)ethynyl)pyridin-2-yl)-1,2,4-oxadiazol-5-yl)ethyl)cyclopropanamine] gave a 50% effective concentration (EC50) of at most 30 nM.
